Source: paper PMC8621857, “Structural Insights into the Azole Resistance of the Candida albicans Darlington Strain Using Saccharomyces cerevisiae Lanosterol 14α-Demethylase as a Surrogate” (Journal of Fungi, 2021)
Like-named read-outs stand apart in the source and are kept apart here.

Legend:
[1] = tested on: S. cerevisiae strain AD2Δ (native wild-type ScLDM); assay: Broth microdilution drug susceptibility assay (MIC80), host strain AD2Δ; assay type: cell-based; conditions: Saccharomyces cerevisiae; strain AD2Δ; 48 h, 30 °C, pH 6.8; mean (± SEM), n = 3; read-out: MIC80
Procedure: Yeast strains used in this study (Supplementary Table S1) were prepared using the AD2Δ strain of S. cerevisiae as a host, using an established protocol. AD2Δ is hypersensitive to xenobiotics due to the deletion of seven major ABC transporters, including those responsible for the efflux of azole drugs. It is also deleted of the PDR3 transcriptional regulator, but contains the gain-of-function Pdr1-3 transcriptional regulator mutation that leads to constitutive overexpression from the PDR5 locus.
(§1) Azole susceptibility was measured as the mean drug concentration required to inhibit 80% of yeast growth (MIC80) compared to a non-drug control, using a standard broth microdilution assay. Serial dilutions of short- (FLC and VCZ), medium- (VT-1161), and long-tailed (ITC and PCZ) azole drugs, and the control drugs micafungin (MCF) and amphotericin B (AMB), were prepared in a 96-well microtiter plate in complete synthetic media lacking uracil, buffered to pH 6.8 [34]. Control and test cells were seeded at an optical density of 600 nm (OD600) of 0.005 (~1.5 × 10^4 colony forming units). After incubation for 48 h at 30 °C with constant agitation (200 rpm), the OD600 nm of each well was measured using a Synergy 2 multi-mode plate reader (BioTek Instruments, Winooski, VT, USA). The experiment was repeated three times (a total of nine measurements for the response of each strain to each drug). GraphPad Prism 5.0 software was used for statistical analysis, using a one-way analysis of variance with a Bonferroni post-hoc test. The statistical significance of comparisons was accepted when p < 0.05.

[2] = tested on: S. cerevisiae strain AD3Δ ScErg11 (AD3Δ) overexpressing wild-type ScLDM6×His; assay: Broth microdilution drug susceptibility assay (MIC80), strain AD3Δ ScErg11; assay type: cell-based, Saccharomyces cerevisiae; conditions: strain AD3Δ; for MIC80: Saccharomyces cerevisiae, 48 h, 30 °C, pH 6.8, mean (± SEM), n = 3, read-out: MIC80; for MIC80/Relative Amount of ScLDM6×His: relative expression 1
Procedure: (§2) The native ScERG11 gene in yeast cells containing mutant ScERG11-6×His constructs in the PDR5 locus was disrupted by homologous recombination with a cassette encoding the His1 selection marker and sequences homologous with the regions bordering the endogenous ScERG11 ORF to create strains AD3Δ ScErg11 Y140H, AD3Δ ScErg11 I471T and AD3Δ ScErg11Y140H I471T [43]. Transformants were selected on SD-His agar plates incubated at 30 °C for 48–72 h. Genomic DNA was extracted, and DNA sequencing as above was used to confirm deletion of the native ERG11. Strain AD3Δ ScErg11 (denoted as AD3Δ), which overexpresses wild-type ScLDM6×His from the PDR5 locus and has the native ScERG11 gene disrupted, was used as a control strain [43].
as §1

[3] = tested on: S. cerevisiae strain AD3Δ ScErg11 Y140H I471T expressing ScLDM6×His Y140H I471T; assay: Broth microdilution drug susceptibility assay (MIC80), strain AD3Δ ScErg11 Y140H I471T; assay type: cell-based, Saccharomyces cerevisiae; conditions: for MIC: Saccharomyces cerevisiae, strain Y140H + I471T, 48 h, 30 °C, pH 6.8, mean (± SEM), n = 3; for MIC80/Relative Amount of ScLDM6×His / fold-resistance based on the relative amount of recombinant enzyme compared with strain AD3Δ: strain Y140H+I471T, relative expression 0.41
Procedure: as §2, §1

[4] = target: T1, wild-type (AD3Δ) ScLDM6×His (Saccharomyces cerevisiae, UniProt P10614); assay: Type II azole binding to affinity purified wild-type ScLDM6×His; conditions: for ΔAmax: type II binding
T1 construct: recombinant full-length C-terminal hexahistidine-tagged wild-type Saccharomyces cerevisiae LDM (ScLDM6×His); 6×His (hexahistidine) (C); made in house; host or cells: Saccharomyces cerevisiae strain AD3Δ ScErg11 (overexpression from the PDR5 locus, native ERG11 disrupted)
T1 sequence (P10614 whole entry, stated change not applied): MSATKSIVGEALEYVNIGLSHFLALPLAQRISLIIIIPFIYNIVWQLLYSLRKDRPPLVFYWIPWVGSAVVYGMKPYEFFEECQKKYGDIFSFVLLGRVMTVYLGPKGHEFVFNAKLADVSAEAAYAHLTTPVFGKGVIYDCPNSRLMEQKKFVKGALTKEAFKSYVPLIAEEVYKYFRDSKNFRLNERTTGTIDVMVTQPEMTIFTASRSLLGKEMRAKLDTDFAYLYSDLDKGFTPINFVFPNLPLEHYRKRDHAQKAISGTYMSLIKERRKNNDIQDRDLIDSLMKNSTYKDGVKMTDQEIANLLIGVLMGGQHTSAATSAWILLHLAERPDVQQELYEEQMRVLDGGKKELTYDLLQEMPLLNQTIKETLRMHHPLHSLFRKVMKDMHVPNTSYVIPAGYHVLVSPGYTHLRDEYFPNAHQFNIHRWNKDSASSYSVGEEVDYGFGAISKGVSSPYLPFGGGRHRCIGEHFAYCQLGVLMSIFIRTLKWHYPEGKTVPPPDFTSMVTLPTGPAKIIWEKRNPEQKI
Procedure: Protein purification was carried out using established methods. In brief, a 12 L culture for each control and test strain was grown overnight in 1 L volumes of YPD medium (1% [w/v] yeast extract [BD Difco], 2% [w/v] peptone [BD Difco], and 2% [w/v] D-glucose) in baffled 3 L flasks at 30 °C, with constant agitation (140 rpm). Cells harvested by centrifugation were broken by bead-beating and crude membrane fractions obtained by differential centrifugation, as previously described. The protein concentration of the crude membranes was estimated using the Lowry assay, with bovine serum albumin (Thermo Fisher) used as the protein standard. The crude membranes (1 g at 2.5 mg/mL) were detergent-solubilized using 10× critical micelle concentration (CMC) n-decyl-β-D-maltoside (DM) (Anatrace, Maumee, OH, USA) in buffer containing 10% (w/v) glycerol, 250 mM NaCl, 20 mM Tris pH 7.5, 0.5 mM phenylmethanesulfonyl fluoride (PMSF), and 1 EDTA-free protease inhibitor pill (Roche, Basel, Switzerland) per 300 mL. When the protein was to be used to assess in vitro binding affinity for the test azoles, detergent solubilized ScLDM6×His recovered after centrifugation was affinity purified using a nickel-nitrilotriacetic acid (Ni-NTA)-agarose matrix (Qiagen). The bound ScLDM6×His was eluted from the matrix using an affinity purification buffer containing 50 mM L-histidine. The L-histidine was removed by washing the enzyme through centrifugal filtration, using a 50 kDa molecular-weight cut-off Amicon Ultra-4 filter (Sigma, Auckland, New Zealand).
The concentration of functional ScLDM6×His purified by the nickel affinity method was quantitated using the standard carbon monoxide (CO) binding method. Type II drug binding assays that measure absorbance changes due to ligand interactions with ScLDM6×His were performed for VCZ and ITC, using an established protocol. The peak429nm-trough410nm difference spectra plotted against azole concentration were used to generate drug binding curves. All calculations were performed using GraphPad Prism 5 Software.

[5] = wild-type (AD3Δ) ScLDM6×His, 2 µM enzyme, (± SEM), μM, read-out: [Azole]0.5
[6] = wild-type (AD3Δ) ScLDM6×His, (± SEM)
[7] = wild-type ScLDM6×His, supplement, 'in the 0.5 μM range'
[8] = wild-type enzyme, in the presence of 2 µM enzyme, read-out: IC50 from type II binding curves

Compound | MIC80 [1] | MIC80 [2] | MIC80/Relative Amount of ScLDM6×His [2] | MIC [3] | resistance conferred, relative expression taken into account ([3]; ScLDM6×His Y140H I471T (0.41 of wild-type) vs AD3Δ) | MIC80/Relative Amount of ScLDM6×His [3] | fold-resistance based on the relative amount of recombinant enzyme compared with strain AD3Δ [3] | IC50 [4, 5] | ΔAmax [4, 6] | Hill number [4, 6] | Kd [4, 6] | Kd [4, 7] | IC50 [4, 8] | MIC80 higher than AD3Δ ScErg11 cells ([3]; strain AD3Δ ScErg11 Y140H I471T, not corrected for expression, p < 0.001) | MIC80 higher than cells overexpressing ScLDM6×His Y140H ([3]; strain AD3Δ ScErg11 Y140H I471T, p < 0.001)
CCC(C)n1ncn(-c2ccc(N3CCN(c4ccc(OCC5COC(Cn6cncn6)(c6ccc(Cl)cc6Cl)O5)cc4)CC3)cc2)c1=O (stereo not drawn) [ITC, itraconazole] | 0.0735 µM | 0.143 µM | 0.143 µM | 0.108 µM | 1.8 fold | 0.263 µM | 1.8 × | 0.6 µM | 0.08 (0.006) | 1.61 (0.22) | 430 nM | ~500 nM | 0.6 to 0.8 µM |  | 
C[C@@H](c1ncncc1F)[C@](O)(Cn1cncn1)c1ccc(F)cc1F [VCZ, voriconazole] | 0.0375 µM | 0.0933 µM | 0.0933 µM | 0.25 µM |  | 0.609 µM | 6.5 × | 0.78 µM | 0.10 (0.004) | 1.85 (0.23) | 620 nM | ~500 nM | 0.6 to 0.8 µM | approximately 3 fold | 1.5 fold
